Laboratory results as given in PubChem BioAssay AID493130 (Broad Institute, 2011).
Results filed as inconclusive are left out. Active and inactive are the calls of the source.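 How the source made its calls: active means signal-lowering compounds whose fitted half-maximal concentration is at most ten times their highest tested dose; inconclusive means flat fit between -30 and -70%, or poor fit; inactive means flat within 30%, signal rising, or potency beyond limit.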

Each compound was assayed against POS-1 (Caenorhabditis elegans) binding to mex-3 RNA (assay: C. elegans POS-1 RNA interaction disruptors – biochemical, fluorescence polarization, cherry-picked samples, set 2, counter-screen for MEX-5 RNA-binding inhibitor project, dose response (AID 493130;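 further: POS-1 as maltose binding protein fusion made in E. coli with FITC RNA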)). Details: POS-1/mex-3 RNA fluorescence polarization, 1 h.
For `Cc1cccc(N=Nc2c(O)[nH]c3ccc(F)cc23)c1`, the AC50 was 1.87 µM. For `CCCCN1C(=O)C2Cc3c([nH]c4ccccc34)CN2C1=S` (stereo not drawn), the AC50 was 8.04 µM. Work on `CC(=O)Nc1ccc(N2C(=O)c3cccc4c(O)ccc(c34)C2=O)cc1` yielded an AC50 of 1.41 µM. `CCNC(=S)N/N=C/c1sc(N2CCCCC2)nc1-c1cccs1` was tested, and the AC50 was 4.68 µM. Compound `CCOc1cc(/C=C2\CCCc3c2nc2ccccc2c3C(=O)O)ccc1OC` has an AC50 of 0.948 µM. For `COc1ccc(/C(O)=C/c2nc3ccccc3n(-c3ccccc3)c2=O)cc1`, the AC50 was 3.23 µM. With `CCN1/C(=C2\SC(=S)N(Cc3ccccc3)C2=O)Sc2ccccc21` the AC50 was 1.6 µM. With `Cc1c2ccccc2nc2c(F)c(NCCO)c(F)c(F)c12` the AC50 was 0.854 µM. With `Brc1ccc(C2=CC(c3cccs3)n3ncnc3N2)cc1` (stereo not drawn) the AC50 was 1.4 µM. In the case of `Cc1ccc(C)n1-c1ccccc1N`, the AC50 is reported as 5.78 µM. With `COC(=O)c1cc2c(-c3ccccc3)c(C)c3ccccn3c-2c1C(=O)OC` the AC50 was > 10 µM (inactive). For `CC1(C)CC(=O)C2=C(C1)N=c1s/c(=C/c3ccc(F)c(F)c3)c(=O)n1C2c1ccc(F)cc1` (stereo not drawn), the AC50 was > 10 µM (inactive). For `N#CC1(C#N)C(c2ccccc2)OC23CCCCC2C1(C#N)C(=N)O3` (stereo not drawn), the AC50 was 4.61 µM.

Same assay, conditions: POS-1/mex-3 RNA fluorescence polarization, 1 h; at 10 µM (top of the series)
For `Cn1ncc2c(NNC(=O)c3ccccc3Cl)ncnc21`, the “activity change, negative = inhibition” value was “inactive”. `COc1ccc2c(c1)NC(c1ccc(N(C)C)cc1)c1cccn1-2` (stereo not drawn) was tested, and the “activity change, negative = inhibition” value was “inactive”. `COC(=O)/C(C#N)=C/c1c(-c2ccccc2)nc2n1CCS2` was tested, and the “activity change, negative = inhibition” value was “inactive”. `COc1ccc(NC(=O)c2sc3nc(Cc4ccccc4)cc(C(F)(F)F)c3c2N)cc1OC` was tested, and the “activity change, negative = inhibition” value was “inactive”. For `N=C1C(c2nc3ccccc3[nH]2)=C(O)CN1c1ccccc1`, the “activity change, negative = inhibition” value was “inactive”. `CC1=NN2C(=N)/C(=C\c3ccc(SCc4ccccc4)o3)C(=O)N=C2S1` was tested, and the “activity change, negative = inhibition” value was “inactive”. For `CN(C)c1ccc(N=Cc2nc(-c3ccccc3)oc2OC(=O)c2cccc(Br)c2)cc1`, the “activity change, negative = inhibition” value was “inactive”. In the case of `O=C(O)c1ccc(NC2=C(Cl)C(=O)c3ccccc3C2=O)cc1`, the “activity change, negative = inhibition” value is reported as “inactive”. `O=C1SC(SCc2ccccc2)=N/C1=C\c1ccc(C(=O)O)cc1` was tested, and the “activity change, negative = inhibition” value was “inactive”. In the case of `O=c1nc(-c2ccccc2)c2cc(Br)ccc2[nH]1`, the “activity change, negative = inhibition” value is reported as “inactive”. For `Cc1nc2cc(C(=O)O)ccc2n1-c1ccc(F)cc1F`, the “activity change, negative = inhibition” value was “inactive”. With `CC(=O)O[C@@H]1[C@@H](O)[C@@H](O)[C@H](Oc2c(-c3ccc(O)cc3)oc3c(CC=C(C)C)c(O)cc(O)c3c2=O)O[C@H]1C` the “activity change, negative = inhibition” value was “inactive”. With `COc1ccccc1/C=C1\SC(=S)N(CCC(=O)Nc2cc(C)on2)C1=O` the “activity change, negative = inhibition” value was “inactive”. In the case of `CS(=O)(=O)c1nsc2nc(=O)c(/C=C3\C=Nc4ccccc43)c(N)n12`, the “activity change, negative = inhibition” value is reported as “inactive”. With `O=C(O)c1ccc(N2C(=O)c3cccc4c(C(=O)O)ccc(c34)C2=O)cc1` the “activity change, negative = inhibition” value was “inactive”. In the case of `Cc1nc2ccc(NC(=O)NC(=O)c3c(Cl)cccc3Cl)cc2o1`, the “activity change, negative = inhibition” value is reported as “inactive”. In the case of `COc1ccc(CCn2c(=N)c(C(=O)NCC3CCCO3)cc3c(=O)n4cccc(C)c4nc32)cc1` (stereo not drawn), the “activity change, negative = inhibition” value is reported as “inactive”. `COc1ccc(/C=N/Nc2nc(=O)[nH]nc2C)cc1[N+](=O)[O-]` was tested, and the “activity change, negative = inhibition” value was “inactive”. For `CCOC(=O)c1ccc(N=Nc2c(C)c(C#N)c(O)[nH]c2=O)cc1`, the “activity change, negative = inhibition” value was “inactive”. With `O=C(Cc1csc(N2CCOCC2)n1)N/N=C/c1ccc(O)c(O)c1O` the “activity change, negative = inhibition” value was “inactive”. For `COc1ccccc1C(=O)NNC(=O)c1csc(N2CCOCC2)n1`, the “activity change, negative = inhibition” value was “inactive”. For `Cc1ccc(C(=O)/C=C/c2ccccc2[N+](=O)[O-])cc1`, the “activity change, negative = inhibition” value was “inactive”. `Cc1c(N=Cc2cc3c(cc2[N+](=O)[O-])OCO3)cccc1[N+](=O)[O-]` was tested, and the “activity change, negative = inhibition” value was “inactive”. `CCc1ccc(N2C(=O)NC(=O)/C(=C/c3cccn3CCOc3ccc(C(C)CC)cc3)C2=O)cc1` (stereo not drawn) was tested, and the “activity change, negative = inhibition” value was “inactive”. With `CCCCNc1c(N)n(CCCC)c(=O)[nH]c1=O` the “activity change, negative = inhibition” value was “inactive”. `Cc1c(C(=O)NNC(=S)Nc2ccc(S(N)(=O)=O)cc2)oc2ccccc12` was tested, and the “activity change, negative = inhibition” value was “inactive”. With `Cc1cccc(C(=O)NNC(=O)c2ccco2)c1O` the “activity change, negative = inhibition” value was “inactive”. With `O=C(O)c1ccc(NCc2cccnc2)cc1` the “activity change, negative = inhibition” value was “inactive”. `CC(C#N)(Nc1ccc(Cl)cc1)c1cccnc1` (stereo not drawn) was tested, and the “activity change, negative = inhibition” value was “inactive”. With `COc1ccc2nc3ccccc3nc2c1NC(=O)c1ccc(Cl)cc1` the “activity change, negative = inhibition” value was “inactive”. `Cc1cc(=O)[nH]c(SCc2nc3ccc([N+](=O)[O-])cc3[nH]2)n1` was tested, and the “activity change, negative = inhibition” value was “inactive”. For `CCN(CC)CCOc1ccc2c(c1)C(=NNC(=O)c1ccccn1)c1cc(OCCN(CC)CC)ccc1-2`, the “activity change, negative = inhibition” value was “inactive”. With `Cc1nc2nc(-c3ccc(Cl)cc3)cn2nc1C` the “activity change, negative = inhibition” value was “inactive”. `Cc1ccc(NC(=O)CCC(=O)NNC(=S)Nc2ccc(F)cc2)c(C)c1` was tested, and the “activity change, negative = inhibition” value was “inactive”. For `COCC1CCN(Cc2c(C(=O)N3CCN(C4CCCCC4)CC3)nc3ccccn23)C1` (stereo not drawn), the “activity change, negative = inhibition” value was “inactive”. `CCOC(=O)c1cnc(SCC(=O)NNC(=O)c2ccco2)nc1N` was tested, and the “activity change, negative = inhibition” value was “inactive”. With `CCOC(=O)Cc1csc(NC(=O)c2sc3nc4ccc(C)cc4cc3c2N)n1` the “activity change, negative = inhibition” value was “inactive”. With `CC(=O)Nc1ccc(-c2csc(Nc3cccc(C)n3)n2)cc1` the “activity change, negative = inhibition” value was “inactive”. In the case of `N#CC(C(=O)NC1CC1)c1nc2ccccc2nc1N1CCN(C/C=C/c2ccccc2)CC1` (stereo not drawn), the “activity change, negative = inhibition” value is reported as “inactive”. In the case of `Cc1cc(/C=C2\C(=O)NC(=O)N(Cc3ccccc3)C2=O)c(C)n1-c1ccc(Cl)c(C(=O)O)c1`, the “activity change, negative = inhibition” value is reported as “inactive”. For `COc1cccc(OCC(=O)NNC(=O)c2cnccn2)c1`, the “activity change, negative = inhibition” value was “inactive”. With `CN1CCc2c(sc(NC(=O)c3ccc(S(=O)(=O)N4CCCC4)cc3)c2C(N)=O)C1` the “activity change, negative = inhibition” value was “inactive”. With `Cc1cccc(/C=N/NC(=O)Cn2nnnc2N)n1` the “activity change, negative = inhibition” value was “inactive”. With `CN1CN(C)c2ccc([N+](=O)[O-])c3cccc1c23` the “activity change, negative = inhibition” value was “inactive”. `O=c1c(OC2OC(CO)C(O)C(O)C2O)c(-c2ccc(O)c(O)c2)oc2cc(O)cc(O)c12` (stereo not drawn) was tested, and the “activity change, negative = inhibition” value was “inactive”. `CCCCCOP(=O)(OCCCCC)C1(NS(=O)(=O)c2ccccc2)C=CC(=O)c2ccccc21` (stereo not drawn) was tested, and the “activity change, negative = inhibition” value was “inactive”. `O=C(N/N=C/c1c(O)ccc2ccccc12)c1ccc[n+](CCO)c1` was tested, and the “activity change, negative = inhibition” value was “inactive”. `Cc1nc2c3ccccc3nc(NNC(=O)CCC(=O)N3CCC(C)CC3)n2n1` was tested, and the “activity change, negative = inhibition” value was “inactive”. With `COc1ccc(/C=C2\C(=O)NC(=S)N2C(=O)c2ccc(C)cc2)cc1` the “activity change, negative = inhibition” value was “inactive”. With `O=C(N/N=C/c1cccnc1)c1ccccc1` the “activity change, negative = inhibition” value was “inactive”. In the case of `O=C(NN=C1C2CC3CC1CC(Cl)(C3)C2)c1ccccn1`, the “activity change, negative = inhibition” value is reported as “inactive”. With `CCOC(=O)CC1=C(C(=O)OCC)C(c2ccc(OC)cc2OC)C(C#N)=C(N)O1` (stereo not drawn) the “activity change, negative = inhibition” value was “inactive”. In the case of `CSc1ccc(C(c2c(C(=O)O)[nH]c3ccccc23)c2c(C(=O)O)[nH]c3ccccc23)cc1`, the “activity change, negative = inhibition” value is reported as “inactive”. For `COc1ccc2c(c1)-c1ccccc1S(=O)(=O)N2C(C)=O`, the “activity change, negative = inhibition” value was “inactive”. `COc1cccc(/C=N/NC(=O)N/N=C/c2cccc(OC)c2O)c1O` was tested, and the “activity change, negative = inhibition” value was “inactive”. For `NC1=C([N+](=O)[O-])C(c2ccc3c(c2)OCO3)C2=C(CCCC2=O)O1` (stereo not drawn), the “activity change, negative = inhibition” value was “inactive”. `O=C(O)c1ccc2cccnc2n1` was tested, and the “activity change, negative = inhibition” value was “inactive”. In the case of `O=C(O)Cn1c(O)c(C2=c3ccccc3=NC2=O)sc1=O`, the “activity change, negative = inhibition” value is reported as “inactive”. `O=C(O)c1cc(-c2ccc(/C=c3\sc4nc5ccc(Br)cc5n4c3=O)o2)ccc1Cl` was tested, and the “activity change, negative = inhibition” value was “inactive”. `O=C(O)c1ccccc1N=Nc1c(O)[nH]c2ccc([N+](=O)[O-])cc12` was tested, and the “activity change, negative = inhibition” value was “inactive”. `COc1cc(OC)c2ccc(=O)oc2c1C(CC(=O)N1CCCC1)c1ccc(N(C)C)cc1` (stereo not drawn) was tested, and the “activity change, negative = inhibition” value was “inactive”. In the case of `CC(=O)NNc1ncnc2ccccc12`, the “activity change, negative = inhibition” value is reported as “inactive”. `COc1ccc(C(=O)C/C(=C\C(=O)c2ccc(C)cc2)c2ccccc2)cc1` was tested, and the “activity change, negative = inhibition” value was “inactive”. For `Cc1ccc2c(c1)c(C1=NC(=S)NC1=O)c(O)n2C`, the “activity change, negative = inhibition” value was “inactive”. In the case of `Cc1cc(C)c([C@@H]2C[C@H]3CN(C4CCCC4)C(=O)[C@]34CCCN24)c(-n2cccn2)c1`, the “activity change, negative = inhibition” value is reported as “inactive”. In the case of `Cc1ccc(N=Nc2c(O)n(CN3CCOCC3)c3ccccc23)cc1`, the “activity change, negative = inhibition” value is reported as “inactive”. With `O=C(O)c1ccc2cccnc2c1O` the “activity change, negative = inhibition” value was “inactive”. For `O=S(=O)(Nc1ccc(O)c(NS(=O)(=O)c2ccccc2)c1)c1ccccc1`, the “activity change, negative = inhibition” value was “inactive”. In the case of `CCc1ccc(/C=C2\Oc3cc(OS(C)(=O)=O)ccc3C2=O)cc1`, the “activity change, negative = inhibition” value is reported as “inactive”. For `COc1ccccc1OCC(=O)NNC(=O)c1cnccn1`, the “activity change, negative = inhibition” value was “inactive”. With `COc1ccc(/C=C/C(=O)c2cc(Cl)cc(Cl)c2O)c(OC)c1` the “activity change, negative = inhibition” value was “inactive”. For `O=[N+]([O-])c1ccc(O)c(C=Nc2ccc3c(c2)OCCO3)c1`, the “activity change, negative = inhibition” value was “inactive”. For `COc1cc(/C=N/NC(=O)c2ccc(=O)[nH]n2)ccc1O`, the “activity change, negative = inhibition” value was “inactive”. In the case of `CC1=CC2=C(OC1N(C)C)c1cccc3cccc(c13)C2=O` (stereo not drawn), the “activity change, negative = inhibition” value is reported as “inactive”. In the case of `O=C(CCCN1C(=O)/C(=C/c2ccccc2Cl)SC1=S)NNC(=O)c1ccc(Cl)cc1`, the “activity change, negative = inhibition” value is reported as “inactive”.
